Measurements reported in ChEMBL document CHEMBL3352657 (J Med Chem, 2014).
pEC50, pIC50, pKi: −log10 of the molar value. Active and inactive are the calls of the source. No cut-off for these calls is given here.

Columns and labels:
[1] = biological target: T1, Neurotensin receptor type 2 (Rattus norvegicus, UniProt Q63384); test: Agonist activity at rat NTS2 receptor expressed in CHO-K1 cells assessed as calcium mobilization by FLIPR assay; type: functional, cell-based; settings: for EC50: cho-k1
T1 sequence (Q63384 whole entry): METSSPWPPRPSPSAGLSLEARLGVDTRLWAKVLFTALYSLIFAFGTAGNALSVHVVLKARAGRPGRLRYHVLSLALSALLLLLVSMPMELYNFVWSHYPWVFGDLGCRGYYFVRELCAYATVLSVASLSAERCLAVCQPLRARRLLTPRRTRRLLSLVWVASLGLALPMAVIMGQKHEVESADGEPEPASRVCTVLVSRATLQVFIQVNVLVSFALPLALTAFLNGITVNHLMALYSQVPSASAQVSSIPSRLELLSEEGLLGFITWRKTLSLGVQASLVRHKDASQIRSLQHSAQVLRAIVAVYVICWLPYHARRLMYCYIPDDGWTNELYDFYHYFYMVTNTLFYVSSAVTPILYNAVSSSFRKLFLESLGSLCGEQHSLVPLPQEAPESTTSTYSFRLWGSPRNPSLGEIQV

[2] = biological target: Neurotensin receptor type 1 (Rattus norvegicus, UniProt P20789); test: Displacement of [125I]neurotensin from rat NTS1 receptor expressed in CHO-K1 cells by competitive binding assay; type: cell-based
Sequence of Neurotensin receptor type 1 (P20789 whole entry): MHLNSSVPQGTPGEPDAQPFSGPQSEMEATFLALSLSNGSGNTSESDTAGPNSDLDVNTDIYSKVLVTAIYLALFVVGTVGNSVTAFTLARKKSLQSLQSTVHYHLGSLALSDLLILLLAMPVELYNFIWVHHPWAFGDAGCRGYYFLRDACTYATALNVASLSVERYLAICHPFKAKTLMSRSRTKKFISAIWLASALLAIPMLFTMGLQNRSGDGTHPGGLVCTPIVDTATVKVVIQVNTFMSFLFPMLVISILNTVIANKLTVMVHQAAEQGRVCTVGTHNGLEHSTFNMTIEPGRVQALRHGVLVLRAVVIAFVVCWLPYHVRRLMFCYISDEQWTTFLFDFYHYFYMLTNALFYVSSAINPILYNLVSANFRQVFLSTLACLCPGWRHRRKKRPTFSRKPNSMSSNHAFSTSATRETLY

[3] = biological target: T1, Neurotensin receptor type 2; test: Displacement of [125I]neurotensin from rat NTS2 receptor expressed in CHO-K1 cells by competitive binding assay; type: cell-based
[4] = biological target: T1, Neurotensin receptor type 2; test: Antagonist activity at rat NTS2 receptor expressed in CHO-K1 cells assessed as inhibition of SR142948a-induced calcium mobilization by FLIPR assay; type: functional, cell-based
[5] = biological target: Neurotensin receptor type 1 (Rattus norvegicus) (UniProt P20789); test: Agonist activity at rat NTS1 receptor expressed in CHO-K1 cells assessed as calcium mobilization by FLIPR assay; type: functional, cell-based
Sequence of Neurotensin receptor type 1 (Rattus norvegicus) (P20789 whole entry): as above

[6] = biological target: Neurotensin receptor type 1 (Rattus norvegicus) (UniProt P20789); test: Antagonist activity at rat NTS1 receptor expressed in CHO-K1 cells assessed as inhibition of […]-induced calcium mobilization by FLIPR assay; type: functional, cell-based

SMILES: COc1cccc(OC)c1-c1cc(C(=O)NC2(C(=O)O)C3CC4CC(C3)CC2C4)nn1-c1ccc(C(=O)N(C)CCCN(C)C)cc1C(C)C (stereo not drawn)
- pEC50 ([1]; read-out: EC50): 7.66
- pKi [2]: 8.85
- pKi [3]: 8.24

SMILES: Cc1ccc(S(=O)(=O)Nc2ccc3c(c2)c(C(=O)C(F)(F)F)cn3CC(=O)N[C@@H](CC(C)C)C(=O)O)cc1
- EC50 [1]: Not Active
- pIC50 [4]: 7.42
- pKi [2]: < 4.52
- pKi [3]: 6.69

SMILES: Cc1ccc(S(=O)(=O)Nc2ccc3c(ccn3CC(=O)N[C@@H](CC(C)C)C(=O)O)c2)cc1
- EC50 [1]: Not Active
- pIC50 [4]: 5.48
- pKi [2]: < 4.52
- pKi [3]: 5.82
- Activity [5]: inactive
- inhibition [6]: inactive
